Results taken from US11090304B2 (Amgen Inc., priority 2018, dated 2021).

What follows are compounds tested against GDP-bound KRAS protein (aa 1-169), containing both G12C and C118A amino acid substitutions (Homo sapiens, UniProt P01116, C118A/G12C) (assay: Coupled nucleotide exchange assay (SOS-mediated, AlphaScreen)). Conditions: 5 min compound pre-incubation.
Type: biochemical

Sequence of GDP-bound KRAS protein (aa 1-169), containing both G12C and C118A amino acid substitutions (P01116 1-169 isoform P01116-2 G12C/C118A): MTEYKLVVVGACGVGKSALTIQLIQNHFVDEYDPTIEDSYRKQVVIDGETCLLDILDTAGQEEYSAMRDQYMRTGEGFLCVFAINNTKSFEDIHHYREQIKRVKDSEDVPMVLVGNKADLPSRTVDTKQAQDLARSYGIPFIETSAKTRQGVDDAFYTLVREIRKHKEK

Coupled exchange IC50 (5 min)	SMILES
2.71 | nda μM	C=CC(=O)N1CCN(c2nc(=O)n(-c3ccccc3C(C)C)c3nc(-c4ccc(F)cc4O)c(Cl)cc23)[C@@H](C)C1 (single isomer, unassigned) [Example 54-77-1]
7.26 | nda μM	C=CC(=O)N1CCN(c2nc(=O)n(-c3ccccc3C(C)C)c3nc(-c4cc(F)ccc4O)c(Cl)cc23)[C@@H](C)C1 (single isomer, unassigned) [Example 54-78-1]
1.36 | nda μM	C=CC(=O)N1CCN(c2nc(=O)n(-c3ccccc3C(C)C)c3nc(-c4cc(O)ccc4F)c(Cl)cc23)[C@@H](C)C1 (single isomer, unassigned) [Example 54-88-2]
1.52 | nda μM	C=CC(=O)N1CCN(c2nc(=O)n(-c3ccccc3C3(C)CC3)c3nc(-c4ccccc4F)c(Cl)cc23)[C@@H](C)C1 (single isomer, unassigned) [Example 54-99-1]
0.743 | nda μM	C=CC(=O)N1CCN(c2nc(=O)n(-c3c(C(C)C)cccc3N(C)C)c3nc(-c4ccccc4F)c(Cl)cc23)[C@@H](C)C1 (single isomer, unassigned) [Example 54-104-1]
7.71 | nda μM	C=CC(=O)N1CCN(c2nc(=O)n(-c3cncnc3C(C)(C)C)c3nc(-c4ccccc4F)c(Cl)cc23)[C@@H](C)C1 (single isomer, unassigned) [Example 54-110-1]
5.02 | nda μM	C=CC(=O)N1CCN(c2nc(=O)n(-c3cccnc3C(C)(C)C)c3nc(-c4ccccc4F)c(Cl)cc23)[C@@H](C)C1 (single isomer, unassigned) [Example 54-112-2]
0.863 | nda μM	C=CC(=O)N1CCN(c2nc(=O)n(-c3c(C)ccnc3N(C)C)c3nc(-c4ccccc4F)c(Cl)cc23)[C@@H](C)C1 (single isomer, unassigned) [Example 55-7-1]
0.722 | nda μM	C=CC(=O)N1CCN(c2nc(=O)n(-c3c(C)ncnc3C(C)C)c3nc(-c4ccccc4F)c(Cl)cc23)[C@@H](C)C1 (single isomer, unassigned) [Example 55-13-1]
36.9 | nda μM	C=CC(=O)N1CCN(c2nc(=O)n(-c3c(O)cccc3C(C)C)c3nc(-c4ccccc4F)c(Cl)cc23)[C@@H](C)C1 (single isomer, unassigned) [Example 55-26-1]
0.534 | nda μM	C=CC(=O)N1CCN(c2nc(=O)n(-c3c(C)cnn3C(C)(C)C)c3nc(-c4ccccc4F)c(Cl)cc23)[C@@H](C)C1 (single isomer, unassigned) [Example 55-38-1]
2.87 | nda μM	C=CC(=O)N1CCN(c2nc(=O)n(-c3c(CO)cccc3C(C)C)c3nc(-c4ccccc4F)c(Cl)cc23)[C@@H](C)C1 (single isomer, unassigned) [Example 55-43-1]
8.89 | nda μM	C=CC(=O)N1CCN(c2nc(=O)n(-c3ccccc3C(C)C)c3nc(-c4ccccc4F)c(F)cc23)[C@@H](C)C1 (single isomer, unassigned) [Example 57-7-1]
8.13 | nda μM	C=CC(=O)N1CCN(c2nc(=O)n(-c3c(C)cccc3CC)c3nc(-c4ccccc4F)c(F)cc23)[C@@H](C)C1 (single isomer, unassigned) [Example 57-13-2]
33.2 | nda μM	C=CC(=O)N1CCN(c2nc(=O)n(-c3ccccc3C(C)(C)C)c3nc(-c4ccccc4F)c(F)cc23)[C@@H](C)C1 (single isomer, unassigned) [Example 58-17-1]
11.8 | nda μM	C=CC(=O)N1CCN(c2nc(=O)n(-c3ccccc3C3(C(F)(F)F)CC3)c3nc(-c4c(O)cccc4F)c(F)cc23)[C@@H](C)C1 (single isomer, unassigned) [Example 59-1-1]
1.1 | nda μM	C=CC(=O)N1CCN(c2nc(=O)n(-c3ccccc3C3(C(F)(F)F)CC3)c3nc(-c4c(O)cccc4F)c(F)cc23)[C@@H](C)C1 (single isomer, unassigned) [Example 59-1-2]

Second part, the compound before the results:

SMILES	Coupled exchange IC50 (5 min)
C=CC(=O)N1CCN(c2nc(=O)n(-c3cccnc3C(C)(C)C)c3nc(-c4c(O)cccc4F)c(Cl)cc23)[C@@H](C)C1 (single isomer, unassigned) [Example 54-103-2]	1.48 | nda μM
C=CC(=O)N1CCN(c2nc(=O)n(-c3c(OC)ncnc3C(C)C)c3nc(-c4ccccc4F)c(Cl)cc23)[C@@H](C)C1 (single isomer, unassigned) [Example 54-107-1]	0.731 | nda μM
C=CC(=O)N1CCN(c2nc(=O)n(-c3c(C)nc(C)nc3C(C)C)c3nc(-c4c(O)cccc4F)c(Cl)cc23)[C@@H](C)C1 (single isomer, unassigned) [Example 55-4-2]	0.642 | nda μM
C=CC(=O)N1CCN(c2nc(=O)n(-c3c(C)cc(N(C)C)cc3C(C)C)c3nc(-c4ccccc4F)c(Cl)cc23)[C@@H](C)C1 (single isomer, unassigned) [Example 55-16-1]	1.05 | nda μM
C=CC(=O)N1CCN(c2nc(=O)n(-c3nccnc3C(C)(C)C)c3nc(-c4c(O)cccc4F)c(Cl)cc23)[C@@H](C)C1 (single isomer, unassigned) [Example 55-23-1]	18.55 | nda μM
C=CC(=O)N1CCN(c2nc(=O)n(-c3c(C)ncnc3C(C)C)c3nc(-c4cc(F)ccc4F)c(Cl)cc23)[C@@H](C)C1 (single isomer, unassigned) [Example 55-39-1]	1.795 | nda μM
C=CC(=O)N1CCN(c2nc(=O)n(-c3c(C)ncnc3C(C)C)c3nc(-c4cc(C)ccc4F)c(Cl)cc23)[C@@H](C)C1 (single isomer, unassigned) [Example 55-40-1]	1.02 | nda μM
C=CC(=O)N1CCN(c2nc(=O)n(-c3ccccc3S(F)(F)(F)(F)F)c3nc(-c4c(O)cccc4F)c(Cl)cc23)[C@@H](C)C1 (single isomer, unassigned) [Example 56-1-1]	5.29 | nda μM
C=CC(=O)N1CCN(c2nc(=O)n(-c3c(C)ccnc3CC)c3nc(-c4c(O)cccc4F)c(F)cc23)[C@@H](C)C1 (single isomer, unassigned) [Example 57-1-2]	2.47 | nda μM
C=CC(=O)N1CCN(c2nc(=O)n(-c3c(C)cccc3CC)c3nc(-c4ccccc4F)c(F)cc23)[C@@H](C)C1 (single isomer, unassigned) [Example 57-13-1]	1.46 | nda μM
C=CC(=O)N1CCN(c2nc(=O)n(-c3c(C)cccc3CC)c3nc(-c4c(O)cccc4F)c(F)cc23)[C@@H](C)C1 (single isomer, unassigned) [Example 57-14-2]	1.8 | nda μM
C=CC(=O)N1CCN(c2nc(=O)n(-c3c(C)ccnc3CC)c3nc(-c4ccccc4F)c(F)cc23)[C@@H](C)C1 (single isomer, unassigned) [Example 57-16-1]	1.76 | nda μM
C=CC(=O)N1CCN(c2nc(=O)n(-c3c(C)ccnc3CC)c3nc(-c4ccccc4F)c(F)cc23)[C@@H](C)C1 (single isomer, unassigned) [Example 57-16-2]	7.56 | nda μM
C=CC(=O)N1CCN(c2nc(=O)n(-c3c(C)cccc3C(C)(C)C)c3nc(-c4c(O)cccc4F)c(F)cc23)[C@@H](C)C1 (single isomer, unassigned) [Example 57-17-2]	3.9 | nda μM
C=CC(=O)N1CCN(c2nc(=O)n(-c3ccccc3C(C)(C)C)c3nc(-c4c(O)cccc4F)c(F)cc23)[C@@H](C)C1 (single isomer, unassigned) [Example 58-1-1]	5.95 | nda μM
C=CC(=O)N1CCN(c2nc(=O)n(-c3c(C)ccnc3C(C)C)c3nc(-c4ccccc4F)c(F)cc23)[C@@H](C)C1 (single isomer, unassigned) [Example 58-4-2]	4.82 | nda μM
C=CC(=O)N1CCN(c2nc(=O)n(-c3c(C)ccnc3C(C)C)c3nc(-c4cc(O)ccc4F)c(F)cc23)[C@@H](C)C1 (single isomer, unassigned) [Example 58-5-1]	5.6 | nda μM
C=CC(=O)N1CCN(c2nc(=O)n(-c3c(C)ccnc3C(C)C)c3nc(-c4cc(N)ccc4F)c(F)cc23)[C@@H](C)C1 (single isomer, unassigned) [Example 58-6-1]	8.63 | nda μM
C=CC(=O)N1CCN(c2nc(=O)n(-c3c(C)ccnc3C(C)C)c3nc(-c4cc(N)ccc4Cl)c(F)cc23)[C@@H](C)C1 (single isomer, unassigned) [Example 58-8-2]	2.02 | nda μM
C=CC(=O)N1CCN(c2nc(=O)n(-c3c(C)ccnc3C(C)C)c3nc(-c4ccc(F)cc4F)c(F)cc23)[C@@H](C)C1 (single isomer, unassigned) [Example 58-10-2]	6.31 | nda μM
C=CC(=O)N1CCN(c2nc(=O)n(-c3c(C)cccc3C3CC3)c3nc(-c4c(O)cccc4F)c(F)cc23)[C@@H](C)C1 (single isomer, unassigned) [Example 58-13-1]	1.56 | nda μM
C=CC(=O)N1CCN(c2nc(=O)n(-c3c(C(C)C)ccnc3C)c3nc(-c4ccccc4F)c(F)cc23)[C@@H](C)C1 (single isomer, unassigned) [Example 58-16-1]	11.6 | nda μM
C=CC(=O)N1CCN(c2nc(=O)n(-c3c(C4CC4)ccnc3C)c3nc(-c4c(O)cccc4F)c(F)cc23)[C@@H](C)C1 (single isomer, unassigned) [Example 58-19-1]	4.06 | nda μM
C=CC(=O)N1CCN(c2nc(=O)n(-c3c(C4CC4)ccnc3C)c3nc(-c4ccccc4F)c(F)cc23)[C@@H](C)C1 (single isomer, unassigned) [Example 58-20-1]	16.2 | nda μM
C=CC(=O)N1CCN(c2nc(=O)n(-c3c(F)cccc3C(C)C)c3nc(-c4c(O)cccc4F)c(F)cc23)[C@@H](C)C1 (single isomer, unassigned) [Example 59-2-2]	7.49 | nda μM
C=CC(=O)N1CCN(c2nc(=O)n(-c3c(F)cccc3C(C)C)c3nc(-c4ccccc4F)c(F)cc23)[C@@H](C)C1 (single isomer, unassigned) [Example 59-3-2]	33 | nda μM
